Legend:
[1] = system: recombinant human anti-SARS-CoV antibody 03-018; type: binding; parameters: Binding of antibody 03-018 to linear peptides of the N protein of SARS-CoV Urbani / Binding of antibody 03-018 to looped/cyclic peptides of the N protein of SARS-CoV Urbani: unit not given here
[2] = system: antibodies in sera from SARS patients (sera 1a, 1b, 2, 6, 37, 62, London, SARS-yellow, SARS-green); type: binding, human; parameters: Binding of serum 6 to linear peptides of protein X1 of SARS-CoV Urbani / Binding of serum 37 to linear peptides of protein X1 of SARS-CoV Urbani / Binding of serum 6 to looped/cyclic peptide (PEPSCAN-ELISA) / Binding of serum 37 to looped/cyclic peptide (PEPSCAN-ELISA) / Binding of serum 37 to looped/cyclic peptides of protein X1 of SARS-CoV Urbani / Binding of serum 6 to linear peptides of protein X2 / Binding of serum 37 to linear peptides of protein X2 / Binding of serum 37 to looped/cyclic peptides of protein X2 of SARS-CoV Urbani / Binding of serum 6 to linear peptides of protein M of SARS-CoV Urbani / Binding of serum 37 to linear peptides of protein M of SARS-CoV Urbani / Binding of serum 6 to looped/cyclic peptides of protein M of SARS-CoV Urbani / Binding of serum 37 to looped/cyclic peptides of protein M of SARS-CoV Urbani / Binding of serum 6 to linear peptides of protein X3 of SARS-CoV Urbani / Binding of serum 37 to linear peptides of protein X3 of SARS-CoV Urbani / Binding of serum 37 to looped/cyclic peptides of protein X3 of SARS-CoV Urbani / Binding of serum 6 to linear peptides of protein X4 of SARS-CoV Urbani / Binding of serum 37 to linear peptides of protein X4 of SARS-CoV Urbani / Binding of serum 37 to looped/cyclic peptides of protein X4 of SARS-CoV Urbani / Binding of serum 6 to linear peptides of protein X5 of SARS-CoV Urbani / Binding of serum 37 to linear peptides of protein X5 of SARS-CoV Urbani / Binding of serum 37 to looped/cyclic peptides of protein X5 of SARS-CoV Urbani / Binding of serum 6 to linear peptides of protein N of SARS-CoV Urbani / Binding of serum 37 to linear peptides of protein N of SARS-CoV Urbani / Binding of serum 6 to linear peptide (PEPSCAN-ELISA) / Binding of serum 1a to looped/cyclic peptides of protein N of SARS-CoV Urbani / Binding of serum 1b to looped/cyclic peptides of protein N of SARS-CoV Urbani / Binding of serum 2 to looped/cyclic peptides of protein N of SARS-CoV Urbani / Binding of serum 6 to looped/cyclic peptides of protein N of SARS-CoV Urbani / Binding of serum 37 to looped/cyclic peptides of protein N of SARS-CoV Urbani / Binding of serum 62 to looped/cyclic peptides of protein N of SARS-CoV Urbani / Binding of serum London to looped/cyclic peptides of protein N of SARS-CoV Urbani / Binding of serum SARS-green to looped/cyclic peptides of protein N of SARS-CoV Urbani: unit not given here
[3] = system: rabbit serum obtained by immunizing a rabbit with the SARS-CoV strain Frankfurt 1; type: binding; parameters: Binding of a rabbit serum to linear peptides / Binding of a rabbit serum to looped peptides / Rabbit serum linear peptides / Rabbit serum looped peptides / Binding of a rabbit serum to linear peptides of protein N of SARS-CoV Urbani (Rabbit serum linear peptides) / Binding of a rabbit serum to looped/cyclic peptides of protein N of SARS-CoV Urbani (Rabbit serum looped peptides): unit not given here
[4] = system: control sera (pooled serum of ten healthy LUMC hospital workers; commercial negative donor pooled serum from the Dutch bloodbank); type: binding, human; parameters: Binding of Control serum LUMC to linear peptides / Binding of Control serum Blood-bank to linear peptides / Binding of Control serum LUMC to looped peptides / Binding of Control Serum Blood-Bank to Looped peptides / Binding of Control serum LUMC to linear peptides of the protein M of SARS-CoV Urbani / Binding of Control serum Blood-bank to linear peptides of the protein M of SARS-CoV Urbani / Binding of Control serum LUMC to looped peptides of the protein M of SARS-CoV Urbani / Binding of Control Serum Blood-Bank to Looped peptides of the protein M of SARS-CoV Urbani: unit not given here

| Sequence | Binding of antibody 03-018 to linear peptides of the N protein of SARS-CoV Urbani [1] | Binding of antibody 03-018 to looped/cyclic peptides of the N protein of SARS-CoV Urbani [1] | Binding of serum 1a to linear peptides of protein N of SARS-CoV Urbani [2] | Binding of serum 1a to looped/cyclic peptides of protein N of SARS-CoV Urbani [2] | Binding of serum 1b to linear peptides of protein N of SARS-CoV Urbani [2] | Binding of serum 1b to looped/cyclic peptides of protein N of SARS-CoV Urbani [2] | Binding of serum 2 to linear peptides of protein N of SARS-CoV Urbani [2] | Binding of serum 2 to looped/cyclic peptides of protein N of SARS-CoV Urbani [2] | Binding of serum 6 to linear peptides of protein N of SARS-CoV Urbani [2] | Binding of serum 6 to looped/cyclic peptides of protein N of SARS-CoV Urbani [2] | Binding of serum 37 to linear peptides of protein N of SARS-CoV Urbani [2] | Binding of serum 37 to looped/cyclic peptides of protein N of SARS-CoV Urbani [2] | Binding of serum 62 to linear peptides of protein N of SARS-CoV Urbani [2] | Binding of serum 62 to looped/cyclic peptides of protein N of SARS-CoV Urbani [2] | Binding of serum London to linear peptides of protein N of SARS-CoV Urbani [2] | Binding of serum London to looped/cyclic peptides of protein N of SARS-CoV Urbani [2] | Binding of serum SARS-green to linear peptides of protein N of SARS-CoV Urbani [2] | Binding of serum SARS-green to looped/cyclic peptides of protein N of SARS-CoV Urbani [2] | Binding of serum SARS-yellow to linear peptides of protein N of SARS-CoV Urbani [2] | Binding of serum SARS-yellow to looped/cyclic peptides of protein N of SARS-CoV Urbani [2] | other results |
| --- | --- | --- | --- | --- | --- | --- | --- | --- | --- | --- | --- | --- | --- | --- | --- | --- | --- | --- | --- | --- | --- |
| NTNSGPDDQIGYYRR | 0.1 | 0.3 | 0.2 | 0.5 | 0.1 | 0.4 | 0.2 | 0.5 | 0.2 | 0.3 | 0.6 | 0.9 | 0.6 | 0.8 | 0.4 | 0.5 | 0.3 | 0.6 | 0.7 | 0.6 | Binding of a rabbit serum to linear peptides of protein N of SARS-CoV Urbani (Rabbit serum linear peptides) [3]: 0.1; Binding of a rabbit serum to looped/cyclic peptides of protein N of SARS-CoV Urbani (Rabbit serum looped peptides) [3]: 0.6; Binding of Control Serum Blood-Bank to Looped peptides [4]: 0.7; Binding of Control serum Blood-bank to linear peptides [4]: 0.7; Binding of Control serum LUMC to linear peptides [4]: 0.7; Binding of Control serum LUMC to looped peptides [4]: 0.9 |
| GGRNGARPKQRRPQG | 0.2 | 0.2 | 0.3 | 0.2 | 0.2 | 0.1 | 0.3 | 0.2 | 0.2 | 0.2 | 0.7 | 0.4 | 0.8 | 0.3 | 0.5 | 0.2 | 2.6 | 0.2 | 0.6 | 0.2 | Binding of a rabbit serum to linear peptides of protein N of SARS-CoV Urbani (Rabbit serum linear peptides) [3]: 0.2; Binding of a rabbit serum to looped/cyclic peptides of protein N of SARS-CoV Urbani (Rabbit serum looped peptides) [3]: 0.8; Binding of Control Serum Blood-Bank to Looped peptides [4]: 0.5; Binding of Control serum Blood-bank to linear peptides [4]: 0.7; Binding of Control serum LUMC to linear peptides [4]: 0.6; Binding of Control serum LUMC to looped peptides [4]: 0.5 |
| IAQFAPSASAFFGMS | 0.1 | 0.3 | 0.2 | 0.4 | 0.1 | 0.2 | 0.1 | 0.4 | 0.1 | 0.3 | 0.6 | 0.7 | 0.5 | 0.6 | 0.4 | 0.4 | 0.2 | 0.4 | 0.6 | 0.4 | Binding of a rabbit serum to linear peptides of protein N of SARS-CoV Urbani (Rabbit serum linear peptides) [3]: 0.2; Binding of a rabbit serum to looped/cyclic peptides of protein N of SARS-CoV Urbani (Rabbit serum looped peptides) [3]: 0.4; Control Serum Blood-Bank Looped peptides [4]: 0.8; Control serum Blood-bank linear peptides [4]: 0.7; Control serum LUMC linear peptides [4]: 0.6; Control serum LUMC looped peptides [4]: 0.6 |
| QIAQFAPSASAFFGM | 0.1 | 0.3 | 0.3 | 0.5 | 0.1 | 0.3 | 0.2 | 0.5 | 0.2 | 0.3 | 0.7 | 0.8 | 0.6 | 0.8 | 0.5 | 0.5 | 0.7 | 0.5 | 0.7 | 0.5. | Binding of a rabbit serum to linear peptides of protein N of SARS-CoV Urbani (Rabbit serum linear peptides) [3]: 0.1; Binding of a rabbit serum to looped/cyclic peptides of protein N of SARS-CoV Urbani (Rabbit serum looped peptides) [3]: 0.5; Control Serum Blood-Bank Looped peptides [4]: 0.9; Control serum Blood-bank linear peptides [4]: 0.9; Control serum LUMC linear peptides [4]: 0.7; Control serum LUMC looped peptides [4]: 0.7 |

Reference: US20070128217A1 (priority 2003, published 2007)
